# US20250176599A1, “FLAVOR COMPOSITION AND FOOD AND BEVERAGE” (TAKASAGO INTERNATIONAL CORPORATION, priority 2021, published 2025)
# Key:
# [1] = Sensory evaluation of aqueous solution V containing 1-octen-3-ol 10 ppb: off-flavor intensity and masking component intensity; conditions: 1-octen-3-ol 10 ppb, average score 0-4
# Outline: (§1)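 Degradation component dissolved in ion-exchanged water; nootkatone then added. Eight experienced panelists tasted each sample, rating off-flavor (0 not sensed to 4 strongly sensed) relative to the masker-free solution set at 4 and water at 0, and masker intensity on an absolute 0–4 scale.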
# [2] = Sensory evaluation of aqueous solution I containing (E)-2-nonenal 1 ppb: off-flavor intensity and masking component intensity; conditions: (E)-2-nonenal 1 ppb, average score 0-4
# Outline: as §1
# [3] = Sensory evaluation of aqueous solution III containing 1-octen-3-one 1 ppb: off-flavor intensity and masking component intensity; conditions: 1-octen-3-one 1 ppb, average score 0-4
# Outline: as §1
# [4] = Sensory evaluation of aqueous solution II containing (E)-2-octenal 10 ppb: off-flavor intensity and masking component intensity; conditions: (E)-2-octenal 10 ppb, average score 0-4
# Outline: as §1
# [5] = Sensory evaluation of aqueous solution VI containing 1,5-octadien-3-ol 10 ppb: off-flavor intensity and masking component intensity; conditions: aqueous solution VI, 1,5-octadien-3-ol 10 ppb, average score 0-4
# Outline: as §1
# [6] = Overall conclusion of the sensory evaluation across aqueous solutions I to VI
# Outline: as §1
# [7] = Sensory evaluation of aqueous solution IV containing 1,5-octadien-3-one 100 ppt: off-flavor intensity and masking component intensity; conditions: aqueous solution IV, 1,5-octadien-3-one 100 ppt, average score 0-4
# Outline: as §1
smiles,measurement,setting,value
"CCCC(=O)C(C)=O [2,3-Hexanedione, 2,3-hexanedione]",Off-Flavor Intensity,[1]; 1 ppb added,3.1 points
same,Off-Flavor Intensity,[1]; 1 ppm added,1.5 points
same,Off-Flavor Intensity,[1]; 5 ppb added,2.9 points
same,Off-Flavor Intensity,[1]; 5 ppm added,0.9 points
same,Off-Flavor Intensity,[1]; 10 ppb added,2.5 points
same,Off-Flavor Intensity,[1]; 10 ppm added,0.4 points
same,Off-Flavor Intensity,[1]; 50 ppb added,2.3 points
same,Off-Flavor Intensity,[1]; 100 ppb added,2.0 points
same,Off-Flavor Intensity,[1]; 500 ppb added,1.8 points
same,Off-Flavor Intensity,[2]; 1 ppb added,3.4 points
same,Off-Flavor Intensity,[2]; 1 ppm added,1.6 points
same,Off-Flavor Intensity,[2]; 5 ppb added,3.4 points
same,Off-Flavor Intensity,[2]; 5 ppm added,1.1 points
same,Off-Flavor Intensity,[2]; 10 ppb added,3.3 points
same,Off-Flavor Intensity,[2]; 10 ppm added,0.9 points
same,Off-Flavor Intensity,[2]; 50 ppb added,2.6 points
same,Off-Flavor Intensity,[2]; 100 ppb added,2.4 points
same,Off-Flavor Intensity,[2]; 500 ppb added,2.0 points
same,Off-Flavor Intensity,[3]; 1 ppb added,4.0 points
same,Off-Flavor Intensity,[3]; 1 ppm added,2.3 points
same,Off-Flavor Intensity,[3]; 5 ppb added,3.9 points
same,Off-Flavor Intensity,[3]; 5 ppm added,1.8 points
same,Off-Flavor Intensity,[3]; 10 ppb added,3.6 points
same,Off-Flavor Intensity,[3]; 10 ppm added,1.5 points
same,Off-Flavor Intensity,[3]; 50 ppb added,3.4 points
same,Off-Flavor Intensity,[3]; 100 ppb added,3.0 points
same,Off-Flavor Intensity,[3]; 500 ppb added,2.5 points
same,Off-Flavor Intensity,[4]; 1 ppb added,3.0 points
same,Off-Flavor Intensity,[4]; 1 ppm added,2.0 points
same,Off-Flavor Intensity,[4]; 5 ppb added,3.0 points
same,Off-Flavor Intensity,[4]; 5 ppm added,1.4 points
same,Off-Flavor Intensity,[4]; 10 ppb added,2.6 points
same,Off-Flavor Intensity,[4]; 10 ppm added,1.0 points
same,Off-Flavor Intensity,[4]; 50 ppb added,2.5 points
same,Off-Flavor Intensity,[4]; 100 ppb added,2.0 points
same,Off-Flavor Intensity,[4]; 500 ppb added,2.0 points
same,Off-Flavor Intensity,[5]; 1 ppb added,3.4 points
same,Off-Flavor Intensity,[5]; 1 ppm added,1.6 points
same,Off-Flavor Intensity,[5]; 5 ppb added,3.4 points
same,Off-Flavor Intensity,[5]; 5 ppm added,1.0 points
same,Off-Flavor Intensity,[5]; 10 ppb added,3.0 points
same,Off-Flavor Intensity,[5]; 10 ppm added,0.5 points
same,Off-Flavor Intensity,[5]; 50 ppb added,2.8 points
same,Off-Flavor Intensity,[5]; 100 ppb added,2.6 points
same,Off-Flavor Intensity,[5]; 500 ppb added,2.1 points
same,"concentration that masks the off-flavor and does not affect the flavor of the food and/or beverage itself, lower limit",[6],≥ 1 ppb
same,"concentration that masks the off-flavor and does not affect the flavor of the food and/or beverage itself, upper limit",[6],≤ 1 ppm
same,Off-Flavor Intensity,[7]; 1 ppb added,3.6 points
same,Off-Flavor Intensity,[7]; 1 ppm added,2.1 points
same,Off-Flavor Intensity,[7]; 5 ppb added,3.5 points
same,Off-Flavor Intensity,[7]; 5 ppm added,1.5 points
same,Off-Flavor Intensity,[7]; 10 ppb added,3.4 points
same,Off-Flavor Intensity,[7]; 10 ppm added,0.8 points
same,Off-Flavor Intensity,[7]; 50 ppb added,2.9 points
same,Off-Flavor Intensity,[7]; 100 ppb added,2.9 points
same,Off-Flavor Intensity,[7]; 500 ppb added,2.6 points
